Experimental findings from ChEMBL document CHEMBL1201862, “PubChem BioAssay data set” (2004) are described below.

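The compound was tested at five concentrations on cells cultured in 96-well plates, with a 48-hour exposure period. GI50 = concentration required for 50% inhibition of growth.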 Calls of active or inactive are those of the source. No stated cut-off is given here; in the data, active = GI50 up to about 1.1 µM and inactive = higher.

Holding throughout (experiment): DTP human tumour cell line panel, 48 h
Assay [1] relates to OVCAR-8.
For assay [2], the system named is MCF7.
The test system of assay [3] is MDA-MB-231.
Assay [4] deals with SK-OV-3.
Assay [5] concerns NCI-H23.
Assay [6] concerns SNB-19.
Assay [7] concerns HCT-116.
Assay [8] deals with TK-10.
The subject of assay [9] is SNB-75.
The subject of assay [10] is HT-29.
Assay [11] deals with UACC-257.
Assay [12] deals with KM12.
The test system of assay [13] is HOP-92.
Assay [14] deals with CAKI-1.
Assay [15] has as its system HOP-62.
For assay [16], the system named is Hs-578T.
Assay [17] concerns SK-MEL-28.
Assay [18] relates to OVCAR-3.
The test system of assay [19] is SF-539.
For assay [20], the system named is MDA-N.

One may read the GI50 as the concentration that inhibits growth by half. On to `Cc1cc2c(c(/C=N/Cc3ccccc3)c1)OC1(C=C2)Oc2ccccc2C(=O)N1C` (stereo not given), for which the GI50 in [1] was 16.5 µM (inactive); in [2], 28.9 µM (inactive); in [3], 27.5 µM (inactive); in assay [4] it was 37.5 µM (inactive); in assay [5] it was 24.8 µM (inactive); in [6] it was 31.6 µM (inactive). Further, the GI50 in [7] was 21 µM (inactive); in assay [8] it was 26 µM (inactive); in [9] it was 16.4 µM (inactive); in [10] it was 21.6 µM (inactive); in [11] it was 25.8 µM (inactive); in [12], 25.2 µM (inactive). Moreover, the GI50 is 17.5 µM (inactive) in [13]; 16.6 µM (inactive) in assay [14]; 31.6 µM (inactive) in assay [15]; 18.3 µM (inactive) in assay [16]; 29.8 µM (inactive) in assay [17]; 37.4 µM (inactive) in assay [18].
For `COc1cccc(C23CCCC(C2)N(C)CC3OC(=O)c2ccccc2)c1OC` (stereo not given), the GI50 is 52.5 µM (inactive) in [19]; 16.4 µM (inactive) in [1]; 27.4 µM (inactive) in assay [2]; 16 µM (inactive) in [20]; 34 µM (inactive) in assay [4]; 10.7 µM (inactive) in assay [5]. Moreover, the GI50 was 35.6 µM (inactive) in assay [6]; 20 µM (inactive) in assay [7]; 13.2 µM (inactive) in [10]; 25.8 µM (inactive) in assay [11]; 22.9 µM (inactive) in [12]; 42.4 µM (inactive) in assay [14]. Moreover, the GI50 in assay [15] is 31.3 µM (inactive); in assay [16], 24.4 µM (inactive); in assay [17], 28 µM (inactive); in [18], 24.8 µM (inactive).
In the case of `Nc1ncnc2c1nc(O)n2-c1ccccc1`, the GI50 in assay [19], in assay [1], in assay [2], in assay [20], in [4] and in assay [5] was > 100 µM (inactive) throughout. For the same molecule, the GI50 in assay [6] is > 100 µM (inactive); in assay [7], > 100 µM (inactive); in assay [8] it was > 100 µM (inactive); in [10] it was > 100 µM (inactive); in [11], > 100 µM (inactive); in assay [13], 96.8 µM (inactive). Besides, the GI50 in assay [14] is 78.9 µM (inactive); in assay [15] it was > 100 µM (inactive); in assay [16] it was > 100 µM (inactive); in assay [17], > 100 µM (inactive); in assay [18] it was > 100 µM (inactive).
On to `C=CCC(SC)C1=C(C)C(=O)c2ccccc21` (stereo not given), for which the GI50 in assay [19], in assay [1], in [2], in assay [20], in [3] and in assay [4] was > 10 µM (inactive) throughout. Besides, the GI50 in assay [5], in assay [6], in assay [8], in assay [10], in [11] and in [12] was > 10 µM (inactive) in each case. Further, the GI50 in assay [13], in assay [15], in assay [17] and in [18] was > 10 µM (inactive) throughout.
For `COC[C@@H](/N=C/c1ccc([N+](=O)[O-])cc1)C(C)C`, the GI50 in assay [1] was > 100 µM (inactive); in [2], 95.1 µM (inactive); in [20], 29.4 µM (inactive); in assay [3], 3.24 µM (inactive); in assay [4], > 100 µM (inactive); in assay [5], > 100 µM (inactive). Also, the GI50 was > 100 µM (inactive) in assay [6]; 26 µM (inactive) in assay [7]; > 100 µM (inactive) in assay [8]; > 100 µM (inactive) in assay [9]; > 100 µM (inactive) in assay [10]; > 100 µM (inactive) in [11]. For the same molecule, the GI50 in assay [12], in assay [14], in assay [16] and in [17] was > 100 µM (inactive) throughout.
In the case of `O=C(O)c1nc2ccccc2nc1Nc1ccc(F)cc1`, the GI50 in assay [19] is 23.5 µM (inactive); in [1], 38.9 µM (inactive); in [2] it was 29.9 µM (inactive); in [5] it was 34 µM (inactive); in assay [6], 30.8 µM (inactive); in assay [7] it was 30.8 µM (inactive). Moreover, the GI50 in [8] was 34.5 µM (inactive); in assay [9], 24.8 µM (inactive); in assay [10] it was 42.1 µM (inactive); in [11], 29.6 µM (inactive); in assay [12], 41.6 µM (inactive); in assay [13] it was 27.1 µM (inactive). Besides, the GI50 in [14] was 20.9 µM (inactive); in assay [15], 30.4 µM (inactive); in assay [16] it was 29.2 µM (inactive); in [17], 36.4 µM (inactive); in [18], 15.3 µM (inactive).
Take `C/C=N\n1c(C)n[nH]c1=O`: the GI50 in assay [19], in assay [1], in assay [2], in assay [20], in assay [5] and in assay [6] was > 100 µM (inactive) each time. Moreover, the GI50 in [7], in assay [8], in [9], in assay [10], in assay [11] and in assay [12] was > 100 µM (inactive) in each case. Moreover, the GI50 in assay [13], in assay [14], in assay [15], in assay [16], in assay [17] and in assay [18] was > 100 µM (inactive) each time.
In the case of `CN(Cc1cc(Cl)cc(Cl)c1)CC(C(=O)c1ccccc1)c1ccccc1` (stereo not given), the GI50 was 5.77 µM (inactive) in assay [19]; 4.2 µM (inactive) in [1]; 3.73 µM (inactive) in [2]; 6.81 µM (inactive) in assay [3]; 10.6 µM (inactive) in assay [4]; 1.7 µM (inactive) in [5]. Besides, the GI50 in assay [6] is 14.4 µM (inactive); in assay [7], 0.689 µM (active); in [8], 6.37 µM (inactive); in assay [9], 7.48 µM (inactive); in assay [10], 1.12 µM (active); in assay [11], 2.56 µM (inactive). Besides, the GI50 in [12] is 3.78 µM (inactive); in assay [13] it was 7.33 µM (inactive); in assay [14] it was 1.03 µM (active); in [15] it was 24.8 µM (inactive); in [16] it was 3.15 µM (inactive); in [17], 2.9 µM (inactive). Further, the GI50 in [18] is 0.605 µM (active).
Take `[O-][N+]1=C(c2ccccc2)/C(=C2/C(c3ccccc3)=[N+]([O-])c3ccccc32)Cc2ccccc21`: the GI50 is 24.2 µM (inactive) in assay [19]; 16.6 µM (inactive) in [1]; 43.4 µM (inactive) in assay [2]; 17.1 µM (inactive) in assay [20]; 13.6 µM (inactive) in assay [3]; 26.4 µM (inactive) in assay [4]. Moreover, the GI50 in assay [5] is 15.5 µM (inactive); in [6] it was 19 µM (inactive); in assay [7], 17.1 µM (inactive); in assay [8], 18.2 µM (inactive); in assay [9] it was 15.5 µM (inactive); in [10] it was 19.4 µM (inactive). Further, the GI50 in [11] was 18.3 µM (inactive); in assay [12], 18.7 µM (inactive); in assay [13], 15.2 µM (inactive); in assay [14], 22 µM (inactive); in assay [15] it was 32.4 µM (inactive); in assay [17], 22.3 µM (inactive). The GI50 in [18] was 16.8 µM (inactive).
With `O=C(Nc1ccccc1)c1cc2ccccc2c(/N=N/c2ccc([N+](=O)[O-])cc2)c1O`, the GI50 in [1] was > 100 µM (inactive); in [3] it was 71.9 µM (inactive); in [4], 81.8 µM (inactive); in assay [5] it was 33.2 µM (inactive); in assay [6] it was 59.6 µM (inactive); in assay [7] it was > 100 µM (inactive). For the same molecule, the GI50 in assay [8] is 56.1 µM (inactive); in assay [9], 73.5 µM (inactive); in assay [10], > 100 µM (inactive); in assay [11], > 100 µM (inactive); in [12], > 100 µM (inactive); in assay [13], 99.3 µM (inactive). The GI50 is > 100 µM (inactive) in assay [14]; 30.6 µM (inactive) in assay [15]; 55.1 µM (inactive) in [16]; > 100 µM (inactive) in [17]; 70.1 µM (inactive) in assay [18].
For `COC(=O)[C@H]1NC(=O)CCSSC1(C)C`, the GI50 in assay [19], in assay [1], in assay [2], in assay [3], in [5] and in assay [6] was > 100 µM (inactive) in each case. Moreover, the GI50 in assay [7], in assay [8], in assay [10], in assay [11], in [12] and in assay [13] was > 100 µM (inactive) each time. Moreover, the GI50 in [14], in assay [15], in assay [16], in assay [17] and in [18] was > 100 µM (inactive) throughout.
Regarding `CCNCCNC(=O)c1ccc(I)cc1`, the GI50 in assay [19], in assay [1], in assay [2], in assay [4], in assay [5] and in assay [6] was > 100 µM (inactive) each time. For the same molecule, the GI50 in [8] is > 100 µM (inactive); in [9] it was 34.4 µM (inactive); in assay [10] it was > 100 µM (inactive); in [12], > 100 µM (inactive); in assay [13], 99.8 µM (inactive); in assay [14] it was > 100 µM (inactive). Besides, the GI50 in assay [16] was 81.8 µM (inactive); in assay [17] it was > 100 µM (inactive); in assay [18] it was > 100 µM (inactive).
